Measured values published in the supplement of paper PMC11451515.

Legend:
Conditions in all cases: 48 h
NOMO1 [1] = experiment: AUC of viability dose-response curve (% viability x log10 dose units); higher = less sensitive
Summary of the method: (§1)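 Library compounds in DMSO were applied for 48 h at 37°C at 11 threefold doses (47 μM to 0.79 nM) to medium-adapted leukemia cells in 1536-well plates holding 500 or 1000 cells/well. Luminescence from CellTiter-Glo One was normalised plate by plate against DMSO and cell-free wells. Area under the curve came from trapezoidal integration of a log-logistic fit, after scaling curves that rose above full viability and discarding those that failed quality control. The fit had four parameters and used log10 doses.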

P12-Ichikawa [2] = experiment: as above
Summary of the method: as §1

NOMO1 [3] = experiment: cell viability relative to DMSO control; higher = less cytotoxic
Summary of the method: (§2)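 Three leukemia lines were tested: NOMO1 and SEM at 500 cells/well and P12-Ichikawa at 1000 cells/well. Each was adapted for at least four passages in each medium and seeded in 5 μl in 1536-well plates, and library compounds in DMSO were pin-dosed from 47 μM to 0.79 nM in 11 threefold steps. After 48 h at 37°C, CellTiter-Glo One luminescence was read. Viability is a percentage relative to DMSO wells on each plate, with cell-free wells as background.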

SEM cells [4] = experiment: as above
Summary of the method: as §2

P12-Ichikawa [5] = experiment: as above
Summary of the method: as §2

SEM cells [6] = experiment: AUC of viability dose-response curve (% viability x log10 dose units); higher = less sensitive
Summary of the method: as §1

COc1cc2c(N3CCN(C(=O)Nc4ccc(OC(C)C)cc4)CC3)ncnc2cc1OCCCN1CCCCC1
AUC of viability dose-response curve
Conditions | HPLM + 10% dialyzed FBS | RPMI 5 mM glucose + 10% FBS | RPMI 5 mM glucose + 10% dialyzed FBS
NOMO1 [1] | 395 | 357 | 371
P12-Ichikawa [2] | 406 | 360 | 369

cell viability [%]
Conditions | NOMO1 [3] | P12-Ichikawa [5] | SEM cells [4]
HPLM + 10% dialyzed FBS, 0.000781 µM | 68.3 | 88.6 | 66.4
HPLM + 10% dialyzed FBS, 0.00234 µM | 89.2 | 92.6 | 73.3
HPLM + 10% dialyzed FBS, 0.00702 µM | 85.9 | 87.4 | 82.7
HPLM + 10% dialyzed FBS, 0.0211 µM | 88.7 | 97.5 | 93.8
HPLM + 10% dialyzed FBS, 0.0632 µM | 83.3 | 91.3 | 56.3
HPLM + 10% dialyzed FBS, 0.19 µM | 87.7 | 91.6 | 32.1
HPLM + 10% dialyzed FBS, 0.569 µM | 112 | 92.3 | 41.1
HPLM + 10% dialyzed FBS, 1.71 µM | 94.2 | 90 | 33.8
HPLM + 10% dialyzed FBS, 5.12 µM | 95.2 | 86 | 38
HPLM + 10% dialyzed FBS, 15.4 µM | 47.4 | 58 | 13.8
HPLM + 10% dialyzed FBS, 46.1 µM | 41.2 | 43.4 | 15.1
RPMI 5 mM glucose + 10% FBS, 0.000781 µM | 73.1 | 84.3 | 89.5
RPMI 5 mM glucose + 10% FBS, 0.00234 µM | 71.7 | 74.1 | 104
RPMI 5 mM glucose + 10% FBS, 0.00702 µM | 84.7 | 80 | 116
RPMI 5 mM glucose + 10% FBS, 0.0211 µM | 74.5 | 92.5 | 98.1
RPMI 5 mM glucose + 10% FBS, 0.0632 µM | 79.4 | 86.3 | 73
RPMI 5 mM glucose + 10% FBS, 0.19 µM | 83.8 | 72.8 | 66.8
RPMI 5 mM glucose + 10% FBS, 0.569 µM | 86.3 | 78.9 | 51.3
RPMI 5 mM glucose + 10% FBS, 1.71 µM | 77.5 | 80.1 | 39.1
RPMI 5 mM glucose + 10% FBS, 5.12 µM | 75.4 | 77.4 | 46.6
RPMI 5 mM glucose + 10% FBS, 15.4 µM | 40 | 42.9 | 16.2
RPMI 5 mM glucose + 10% FBS, 46.1 µM | 67.3 | 48.1 | 22.6
RPMI 5 mM glucose + 10% dialyzed FBS, 0.000781 µM | 79.3 | 79.5 | 82.2
RPMI 5 mM glucose + 10% dialyzed FBS, 0.00234 µM | 80.9 | 86.9 | 85.2
RPMI 5 mM glucose + 10% dialyzed FBS, 0.00702 µM | 75.4 | 84.7 | 83.3
RPMI 5 mM glucose + 10% dialyzed FBS, 0.0211 µM | 85.8 | 83 | 77.8
RPMI 5 mM glucose + 10% dialyzed FBS, 0.0632 µM | 80.9 | 81.1 | 65
RPMI 5 mM glucose + 10% dialyzed FBS, 0.19 µM | 74 | 82.2 | 35.5
RPMI 5 mM glucose + 10% dialyzed FBS, 0.569 µM | 89.7 | 83.6 | 37.3
RPMI 5 mM glucose + 10% dialyzed FBS, 1.71 µM | 93.7 | 79 | 26.1
RPMI 5 mM glucose + 10% dialyzed FBS, 5.12 µM | 85.5 | 84.6 | 27.6
RPMI 5 mM glucose + 10% dialyzed FBS, 15.4 µM | 43.5 | 38.1 | 14.1
RPMI 5 mM glucose + 10% dialyzed FBS, 46.1 µM | 55.3 | 56 | 12.8

COc1ccc(N(C(=O)Oc2c(C)cccc2C)c2ccnc(Nc3ccc(N4CCN(C)CC4)cc3)n2)c(OC)c1
AUC of viability dose-response curve
Conditions | HPLM + 10% dialyzed FBS | RPMI 5 mM glucose + 10% FBS | RPMI 5 mM glucose + 10% dialyzed FBS
P12-Ichikawa [2] | 466 | 457 | 459
SEM cells [6] | 456 | 455 | 451

O=C(NOC[C@H](O)CO)c1ccc(F)c(F)c1Nc1ccc(I)cc1F
AUC of viability dose-response curve
Conditions | NOMO1 [1] | P12-Ichikawa [2] | SEM cells [6]
HPLM + 10% dialyzed FBS | 261 | 434 | 354
RPMI 5 mM glucose + 10% FBS | 274 | 384 | 362
RPMI 5 mM glucose + 10% dialyzed FBS | 260 | 445 | 347

O=C([O-])Cc1ccccc1Nc1c(Cl)cccc1Cl
AUC of viability dose-response curve
Conditions | NOMO1 [1] | P12-Ichikawa [2] | SEM cells [6]
HPLM + 10% dialyzed FBS | 454 | 447 | 442
RPMI 5 mM glucose + 10% FBS | 455 | 445 | 429
RPMI 5 mM glucose + 10% dialyzed FBS | 458 | 447 | 430

cell viability [%], SEM cells [4]
Conditions | HPLM + 10% dialyzed FBS | RPMI 5 mM glucose + 10% FBS
0.000781 µM | 109 | 126
0.00234 µM | 121 | 113
0.00702 µM | 110 | 113
0.0211 µM | 125 | 109
0.0632 µM | 126 | 123
0.19 µM | 129 | 112
0.569 µM | 117 | 111
1.71 µM | 122 | 111
5.12 µM | 75.7 | 69.1
15.4 µM | 112 | 108
46.1 µM | 65.9 | 49

CCN1CCCC1CNC(=O)c1cc(S(=O)(=O)CC)c(N)cc1OC (stereo not given)
AUC of viability dose-response curve
Conditions | NOMO1 [1] | P12-Ichikawa [2] | SEM cells [6]
HPLM + 10% dialyzed FBS | 458 | 463 | 474
RPMI 5 mM glucose + 10% FBS | 459 | 461 | 474
RPMI 5 mM glucose + 10% dialyzed FBS | 469 | 469 | 453

O=C(NCc1ccncc1)C12C[C@H]3C[C@@H](C1)CC(c1ccc(Cl)cc1)(C3)C2
AUC of viability dose-response curve
Conditions | NOMO1 [1] | P12-Ichikawa [2] | SEM cells [6]
HPLM + 10% dialyzed FBS | 419 | 415 | 414
RPMI 5 mM glucose + 10% FBS | 453 | 439 | 389
RPMI 5 mM glucose + 10% dialyzed FBS | 451 | 438 | 420

CNC(=O)c1ccc(Nc2ncc(C(F)(F)F)c(NCc3nccnc3N(C)[S+](C)(=O)[O-])n2)cc1
AUC of viability dose-response curve
Conditions | NOMO1 [1] | P12-Ichikawa [2] | SEM cells [6]
HPLM + 10% dialyzed FBS | 446 | 457 | 348
RPMI 5 mM glucose + 10% FBS | 412 | 447 | 317
RPMI 5 mM glucose + 10% dialyzed FBS | 443 | 438 | 314

cell viability [%], HPLM + 10% dialyzed FBS
Conditions | P12-Ichikawa [5] | SEM cells [4]
0.000781 µM | 120 | 115
0.00234 µM | 127 | 105
0.00702 µM | 117 | 124
0.0211 µM | 118 | 127
0.0632 µM | 124 | 125
0.19 µM | 114 | 113
0.569 µM | 122 | 99.8
1.71 µM | 125 | 63.2
5.12 µM | 109 | 23.5
15.4 µM | 89.4 | 16.7
46.1 µM | 102 | 20.9

COc1ccc2c(c[n+](C)c3c4cc5c(cc4ccc23)OCO5)c1OC
AUC of viability dose-response curve
Conditions | NOMO1 [1] | P12-Ichikawa [2] | SEM cells [6]
HPLM + 10% dialyzed FBS | 438 | 423 | 407
RPMI 5 mM glucose + 10% FBS | 447 | 406 | 397
RPMI 5 mM glucose + 10% dialyzed FBS | 449 | 404 | 402

NC(=O)c1cccc(-c2cccc(OC(=O)NC3CCCCC3)c2)c1
AUC of viability dose-response curve
Conditions | NOMO1 [1] | P12-Ichikawa [2] | SEM cells [6]
HPLM + 10% dialyzed FBS | 461 | 413 | 421
RPMI 5 mM glucose + 10% FBS | 473 | 402 | 357
RPMI 5 mM glucose + 10% dialyzed FBS | 472 | 380 | 376

cell viability [%], SEM cells [4]
Conditions | HPLM + 10% dialyzed FBS | RPMI 5 mM glucose + 10% FBS
0.000781 µM | 110 | 116
0.00234 µM | 125 | 119
0.00702 µM | 128 | 120
0.0211 µM | 133 | 120
0.0632 µM | 124 | 119
0.19 µM | 38.4 | 33
0.569 µM | 128 | 110
1.71 µM | 96.5 | 78.1
5.12 µM | 94.7 | 62.2
15.4 µM | 104 | 78
46.1 µM | 96.9 | 71.5
